# Tests used:
# [1] = target: T1, protein disulfide isomerase A1 (PDIA1) (Homo sapiens, UniProt P07237); assay: insulin reductase (insulin aggregation) assay; assay type: biochemical; conditions: covalent; a-site C53
# T1 construct: gene P4HB; full-length PDIA1 overexpressed in HEK293T (anti-myc detected) for labelling, also endogenous
# [2] = target: T1, protein disulfide isomerase A1 (PDIA1); assay: in-gel fluorescence after CuAAC, SKOV-3 wildtype versus PDIA1 knockout and HEK293T overexpression; assay type: cell-based; conditions: 500 nM, 1 h
# T1 sequence (P07237 18-508): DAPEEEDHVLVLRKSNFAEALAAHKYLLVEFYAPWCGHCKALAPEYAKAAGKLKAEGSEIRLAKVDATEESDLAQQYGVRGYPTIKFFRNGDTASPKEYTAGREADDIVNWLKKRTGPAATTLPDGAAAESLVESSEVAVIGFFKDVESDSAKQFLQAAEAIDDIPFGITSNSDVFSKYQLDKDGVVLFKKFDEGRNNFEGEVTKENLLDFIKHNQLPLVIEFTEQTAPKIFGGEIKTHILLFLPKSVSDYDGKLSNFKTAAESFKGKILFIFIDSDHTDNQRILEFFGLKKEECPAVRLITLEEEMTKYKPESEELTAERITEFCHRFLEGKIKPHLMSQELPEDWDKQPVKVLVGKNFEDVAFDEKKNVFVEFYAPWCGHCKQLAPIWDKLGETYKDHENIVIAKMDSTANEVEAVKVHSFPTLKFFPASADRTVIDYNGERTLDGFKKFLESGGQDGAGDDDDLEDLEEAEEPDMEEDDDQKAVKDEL
smiles,measurement,setting,value
"C#CCN(CCNC(=O)C1(N(CC=C)C(=O)c2ccc(Cl)cc2)CCN(Cc2ccccc2)CC1)C(=O)CCl [4a, FFSMP 4a]",inhibition of PDIA1 activity,[1],FFSMP 4a was shown to inhibit PDIA1 at low μM concentrations
same,covalent labelling,[2],confirming PDIA1 as a predominant protein target of biologically active FFSMP 4a
